PMC3063124 (The Journal of neuroscience : the official journal of the …, 2011)

Target: GluN1/GluN2D (Rattus norvegicus, UniProt Q62645)
Assay type: cell-based
Conditions: absence of QNZ46; continuous presence of glycine

GluN1/GluN2D, sequence (Q62645 28-1323, other chains not shown): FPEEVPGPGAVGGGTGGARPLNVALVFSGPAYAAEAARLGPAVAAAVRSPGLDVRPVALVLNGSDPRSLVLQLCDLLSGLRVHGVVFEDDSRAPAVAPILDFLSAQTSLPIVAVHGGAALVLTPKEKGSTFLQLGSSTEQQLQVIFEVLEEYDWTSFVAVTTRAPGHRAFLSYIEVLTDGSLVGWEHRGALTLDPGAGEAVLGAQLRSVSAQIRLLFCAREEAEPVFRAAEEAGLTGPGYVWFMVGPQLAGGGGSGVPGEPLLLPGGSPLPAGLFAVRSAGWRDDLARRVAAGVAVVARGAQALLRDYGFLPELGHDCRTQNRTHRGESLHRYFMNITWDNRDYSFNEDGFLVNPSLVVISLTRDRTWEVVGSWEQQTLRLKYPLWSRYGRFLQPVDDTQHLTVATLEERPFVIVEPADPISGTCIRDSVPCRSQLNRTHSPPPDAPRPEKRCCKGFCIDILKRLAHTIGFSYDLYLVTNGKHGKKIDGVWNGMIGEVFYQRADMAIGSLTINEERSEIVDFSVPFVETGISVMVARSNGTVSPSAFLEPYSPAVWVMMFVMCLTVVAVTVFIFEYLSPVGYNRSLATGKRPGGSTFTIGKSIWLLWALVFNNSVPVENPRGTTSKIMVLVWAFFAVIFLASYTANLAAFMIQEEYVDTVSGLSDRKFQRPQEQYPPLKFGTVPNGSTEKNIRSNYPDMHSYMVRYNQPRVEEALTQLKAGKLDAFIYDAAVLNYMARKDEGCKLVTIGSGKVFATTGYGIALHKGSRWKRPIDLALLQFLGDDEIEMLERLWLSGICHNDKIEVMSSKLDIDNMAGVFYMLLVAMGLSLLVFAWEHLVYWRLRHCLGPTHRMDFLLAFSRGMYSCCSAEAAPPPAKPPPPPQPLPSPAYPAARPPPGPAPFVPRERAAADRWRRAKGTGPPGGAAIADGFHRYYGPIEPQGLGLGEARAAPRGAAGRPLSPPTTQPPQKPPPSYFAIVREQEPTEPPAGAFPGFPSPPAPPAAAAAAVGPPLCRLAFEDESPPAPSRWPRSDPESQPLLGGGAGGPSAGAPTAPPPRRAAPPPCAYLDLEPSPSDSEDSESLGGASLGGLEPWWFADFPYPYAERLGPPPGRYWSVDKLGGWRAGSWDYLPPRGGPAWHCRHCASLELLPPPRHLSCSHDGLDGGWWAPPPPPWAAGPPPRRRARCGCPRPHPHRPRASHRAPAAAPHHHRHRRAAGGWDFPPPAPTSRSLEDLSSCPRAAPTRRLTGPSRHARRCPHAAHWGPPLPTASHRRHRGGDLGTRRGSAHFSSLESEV

## CN[C@H](CC(=O)O)C(=O)O [NMDA, N-methyl-D-aspartate, reference compound]
  time constant for agonist deactivation (τweighted): 92 ms
